The source of these data is patent publication US8435990B2, “Dihydropyrimidone amides as P2X7 modulators” (Roche Palo Alto LLC, priority 2009, dated 2013).

For this assay, the target named is T1, human P2X7 (Homo sapiens, UniProt Q99572).
T1 construct: 1321N1 cells stably expressing the full length human P2X7 gene (1321N1-hP2X7)
T1 sequence (Q99572 1-595): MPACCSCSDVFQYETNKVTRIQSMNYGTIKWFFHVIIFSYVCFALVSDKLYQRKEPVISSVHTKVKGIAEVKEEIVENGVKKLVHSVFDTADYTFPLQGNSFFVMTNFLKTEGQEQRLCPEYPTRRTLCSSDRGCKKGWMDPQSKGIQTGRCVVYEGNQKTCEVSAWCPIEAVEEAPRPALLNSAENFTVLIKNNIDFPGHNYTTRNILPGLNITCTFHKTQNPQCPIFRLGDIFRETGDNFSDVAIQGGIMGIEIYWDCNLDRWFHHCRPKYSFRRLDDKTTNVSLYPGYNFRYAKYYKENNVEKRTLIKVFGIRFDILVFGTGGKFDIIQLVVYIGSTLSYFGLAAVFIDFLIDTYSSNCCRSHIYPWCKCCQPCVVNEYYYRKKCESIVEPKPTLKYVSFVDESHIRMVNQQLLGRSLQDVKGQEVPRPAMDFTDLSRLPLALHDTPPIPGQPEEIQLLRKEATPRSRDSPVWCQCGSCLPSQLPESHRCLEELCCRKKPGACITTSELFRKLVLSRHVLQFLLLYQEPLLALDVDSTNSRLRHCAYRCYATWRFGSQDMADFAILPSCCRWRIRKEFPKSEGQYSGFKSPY
The assay can be described thus: P2X7 modulator pIC50 of Table 1 (assay not given; Intracellular Calcium Flux (FLIPR) Assay assumed). The class given is cell-based. As to the method:
Intracellular Calcium Flux (FLIPR) Assay
Stock solutions of compounds were prepared from powders as a 10 mM DMSO stock solution. These solutions were stored at RT during the two week period of these experiments to prevent freeze-thaw of the DMSO stocks. The DMSO stocks were added to the appropriate assay buffer at a concentration of 10 μM, and then diluted serially to the final concentrations that were tested. No observable precipitate was formed at any time during this process. The aqueous solutions of compounds as well as ATP (Sigma A7699) and BzATP (Sigma B6396) were prepared fresh for each day of experiment.
1321N1 cells stably expressing the full length human P2X7 gene (1321N1-hP2X7) and HEK293 cells stably expressing the full length rat P2X7 gene (HEK293-rP2X7) were obtained from the Roche Cell Culture Facility. 1321N1-hP2X7 cells were grown in Dulbecco's Modified Eagle's Medium (DMEM) high glucose supplemented with 10% FBS and 250 μg/mL G418. HEK293-rP2X7 cells were grown in DMEM/F-12 supplemented with 10% FBS, 1 mM CaCl2, 2 mM MgCl2, 2 mM L-Glutamine and 500 μg/ml G418. Cells were split such that they never became >70% confluent.
On the day prior to the experiment, 1321N1-hP2X7 or HEK293-rP2X7 cells were released into suspension with calcium-free PBS+Versene and washed by centrifugation with calcium-free PBS to remove the Versene. Cells were resuspended in growth medium at a density of 2.5×10^5 cells/mL and seeded into black walled, clear bottom 96 well plates (50,000 cells/well) approximately 18 hr prior to intracellular calcium flux experiments.
On the day of the experiment, plates were washed with FLIPR buffer (calcium- and magnesium-free Hank's Balanced Salt Solution (HBSS) supplemented with 10 mM Hepes, 2.5 mM probenecid and 2 mM calcium chloride) using a BIO-TEK 96 channel plate washer and incubated with […] fluo-3 dye at 37° C. for one hr. The dye was then removed by plate washing and the cells were allowed to equilibrate for 20 min at room temperature with antagonist or vehicle (FLIPR buffer). Agonist (100 μM BzATP final concentration for hP2X7; 5μM BzATP final concentration or rP2X7) was added online with the FLIPR and fluorescence measurements made at 1 sec intervals for 60 sec followed by 3 sec intervals for a further 4 min (5 min total). A final addition of 5 μM ionomycin was made and the maximal BzATP-evoked fluorescence normalized to the maximal ionomycin-evoked fluorescence.
A general note: Calcium assays in cells follow changes in intracellular calcium, usually with a dye or a luminescent sensor.
With `Cc1ccc(-c2ccnn(C)c2=O)cc1NC(=O)C1=CN(C)C(=O)N[C@H]1c1cccc(F)c1` [Compound 44, (S)-4-(3-Fluoro-phenyl)-1-methyl-2-oxo-1,2,3,4-tetrahydro-pyrimidine-5-carboxylic acid [2-methyl-5-(2-methyl-3-oxo-2,3-dihydro-pyridazin-4-yl)-phenyl]-amide], the IC50 (commonly the concentration that inhibits the measured activity by half) was 54.3 nM. As for `CN1C=C(C(=O)Nc2cc(N3CCCC3=O)ccc2Br)[C@H](c2ccc(F)cc2)NC1=O` [Compound 45, (S)-4-(4-Fluoro-phenyl)-1-methyl-2-oxo-1,2,3,4-tetrahydro-pyrimidine-5-carboxylic acid [2-bromo-5-(2-oxo-pyrrolidin-1-yl)-phenyl]-amide], the concentration for half-maximal inhibition (IC50) was 138 nM.

`Cc1cc2cnn(C)c2cc1NC(=O)C1=CN(C)C(=O)N[C@H]1c1ccc(F)cc1` [Compound 46]: the IC50 was 12.2 nM. For `Cc1cc2cn[nH]c2cc1NC(=O)C1=CN(C)C(=O)N[C@H]1c1ccc(F)cc1` [Compound 47, (S)-4-(4-Fluoro-phenyl)-1-methyl-2-oxo-1,2,3,4-tetrahydro-pyrimidine-5-carboxylic acid (5-methyl-1H-indazol-6-yl)-amide], the IC50 is 18.2 nM. For `Cc1ccc(-n2ccc(=O)[nH]c2=O)cc1NC(=O)C1=CN(C)C(=O)N[C@H]1c1ccc(F)cc1` [Compound 48, (S)-4-(4-Fluoro-phenyl)-1-methyl-2-oxo-1,2,3,4-tetrahydro-pyrimidine-5-carboxylic acid [5-(2,4-dioxo-3,4-dihydro-2H-pyrimidin-1-yl)-2-methyl-phenyl]-amide] the value was 26 nM; for `Cc1ccc(-n2ncccc2=O)cc1NC(=O)C1=CN(C)C(=O)N[C@H]1c1cccc(F)c1` [Compound 49, (S)-4-(3-Fluoro-phenyl)-1-methyl-2-oxo-1,2,3,4-tetrahydro-pyrimidine-5-carboxylic acid [2-methyl-5-(6-oxo-6H-pyridazin-1-yl)-phenyl]-amide], 105 nM. On to `Cc1ccc(-n2cccc(C)c2=O)cc1NC(=O)C1=CN(C)C(=O)N[C@H]1c1ccc(F)cc1` [Compound 50, (S)-4-(4-Fluoro-phenyl)-1-methyl-2-oxo-1,2,3,4-tetrahydro-pyrimidine-5-carboxylic acid [2-methyl-5-(3-methyl-2-oxo-2H-pyridin-1-yl)-phenyl]-amide], for which the concentration for half-maximal inhibition (IC50) is 55 nM. As to `CN1C=C(C(=O)Nc2cccc3c(=O)n(C)ccc23)[C@H](c2ccc(F)cc2)NC1=O` [Compound 51, (S)-4-(4-Fluoro-phenyl)-1-methyl-2-oxo-1,2,3,4-tetrahydro-pyrimidine-5-carboxylic acid (2-methyl-1-oxo-1,2-dihydro-isoquinolin-5-yl)-amide], the IC50 is 63.1 nM. `Cc1ccc(-c2ccnn(C)c2=O)cc1NC(=O)C1=CN(C)C(=O)NC1C1CCC(F)(F)CC1` (centres unmarked) [Compound 52, 4-(4,4-Difluoro-cyclohexyl)-1-methyl-2-oxo-1,2,3,4-tetrahydro-pyrimidine-5-carboxylic acid [2-methyl-5-(2-methyl-3-oxo-2,3-dihydro-pyridazin-4-yl)-phenyl]-amide]: the concentration for half-maximal inhibition (IC50) is 339 nM. As to `CN1C=C(C(=O)Nc2cccc3c(=O)n(CCO)ccc23)[C@H](c2ccc(F)cc2)NC1=O` [Compound 53, (S)-4-(4-Fluoro-phenyl)-1-methyl-2-oxo-1,2,3,4-tetrahydro-pyrimidine-5-carboxylic acid [2-(2-hydroxy-ethyl)-1-oxo-1,2-dihydro-isoquinolin-5-yl]-amide], the IC50 is 53.1 nM. Regarding `Cc1ccc(-n2ccccc2=O)cc1NC(=O)C1=CN(C)C(=O)N[C@H]1c1ccc(F)cc1` [Compound 54, (S)-4-(4-Fluoro-phenyl)-1-methyl-2-oxo-1,2,3,4-tetrahydro-pyrimidine-5-carboxylic acid [2-methyl-5-(2-oxo-2H-pyridin-1-yl)-phenyl]-amide], the IC50 is 21.6 nM.

Take `COc1ccc(-c2ccc(C)c(NC(=O)C3=CN(C)C(=O)N[C@H]3c3ccc(F)cc3)c2)nn1` [Compound 55, (S)-4-(4-Fluoro-phenyl)-1-methyl-2-oxo-1,2,3,4-tetrahydro-pyrimidine-5-carboxylic acid [5-(6-methoxy-pyridazin-3-yl)-2-methyl-phenyl]-amide]: the half-inhibitory concentration (IC50) was 11 nM. For `Cc1ccc(-n2c(=O)cc[nH]c2=O)cc1NC(=O)C1=CN(C)C(=O)N[C@H]1c1ccc(F)cc1` [Compound 56, (S)-4-(4-Fluoro-phenyl)-1-methyl-2-oxo-1,2,3,4-tetrahydro-pyrimidine-5-carboxylic acid [5-(2,6-dioxo-3,6-dihydro-2H-pyrimidin-1-yl)-2-methyl-phenyl]-amide] the value was 3160 nM; for `Cc1ccc(-c2ccnn(C)c2=O)cc1NC(=O)C1=CN(C)C(=O)N[C@H]1c1ccccc1` [Compound 57, (S)-1-Methyl-2-oxo-4-phenyl-1,2,3,4-tetrahydro-pyrimidine-5-carboxylic acid [2-methyl-5-(2-methyl-3-oxo-2,3-dihydro-pyridazin-4-yl)-phenyl]-amide], 3470 nM. Then `Cc1cc2cnn(CC(=O)N(C)C)c2cc1NC(=O)C1=CN(C)C(=O)N[C@H]1c1ccc(F)cc1` [Compound 58], with 40.3 nM; and `Cc1ccc(-c2ccc(=O)n(CCO)n2)cc1NC(=O)C1=CN(C)C(=O)N[C@H]1c1ccc(F)cc1` [Compound 59, (S)-4-(4-Fluoro-phenyl)-1-methyl-2-oxo-1,2,3,4-tetrahydro-pyrimidine-5-carboxylic acid {5-[1-(2-hydroxy-ethyl)-6-oxo-1,6-dihydro-pyridazin-3-yl]-2-methyl-phenyl}-amide], with 16.8 nM; and `Cc1ccc(-c2cccn(C)c2=O)cc1NC(=O)C1=CN(C)C(=O)N[C@H]1c1ccc(F)cc1` [Compound 60, (S)-4-(4-Fluoro-phenyl)-1-methyl-2-oxo-1,2,3,4-tetrahydro-pyrimidine-5-carboxylic acid [2-methyl-5-(1-methyl-2-oxo-1,2-dihydro-pyridin-3-yl)-phenyl]-amide], with 5.5 nM. For `COC[C@H](O)Cn1nc(-c2ccc(C)c(NC(=O)C3=CN(C)C(=O)N[C@H]3c3ccc(F)cc3)c2)ccc1=O` [Compound 61, (S)-4-(4-Fluoro-phenyl)-1-methyl-2-oxo-1,2,3,4-tetrahydro-pyrimidine-5-carboxylic acid {5-[1-((R)-2-hydroxy-3-methoxy-propyl)-6-oxo-1,6-dihydro-pyridazin-3-yl]-2-methyl-phenyl}-amide] the value was 40.7 nM; for `Cc1cc(Cl)c(OCCO)cc1NC(=O)C1=CN(C)C(=O)NC1c1ccccc1` (centres unmarked) [Compound 62, 1-Methyl-2-oxo-4-phenyl-1,2,3,4-tetrahydro-pyrimidine-5-carboxylic acid [4-chloro-5-(2-hydroxy-ethoxy)-2-methyl-phenyl]-amide], 15 nM. For `Cc1cc(Cl)c(-n2ncccc2=O)cc1NC(=O)C1=CN(C)C(=O)N[C@H]1c1ccc(F)cc1` [Compound 63, (S)-4-(4-Fluoro-phenyl)-1-methyl-2-oxo-1,2,3,4-tetrahydro-pyrimidine-5-carboxylic acid [4-chloro-2-methyl-5-(6-oxo-6H-pyridazin-1-yl)-phenyl]-amide], the IC50 was 51.9 nM.
